Reference: a melting point compilation (Tetko et al.; mined from patent text by program, amines drawn as free bases though some values may be those of a salt)

SMILES | melting point [°C]
COc1cc(OCCSC)ccc1-c1nc2ncccc2[nH]1 | 197 to 199
OC1CCCCC1c1ncc[nH]1 (centres undefined) | 133 to 134
BrCC1(c2ccc3ccccc3c2)OCCO1 | 64
COc1ccc(/C=C\c2ccc(OC)c(OC)c2OC)cc1 | 55 to 57
N#Cc1cc(Cl)[nH]c1-c1oc2ccccc2c1Cl | 224 to 226
Cc1cc(CN=C(O)c2cc(C(O)=NCc3cc(C)c(O)c(C(C)(C)C)c3)c(C(=O)O)cc2C(=O)O)cc(C(C)(C)C)c1O | 267 to 269
Cc1nc2ccccn2c(=O)c1CCN1CC[C@H](Nc2nc3ccccc3n2Cc2ccc(F)cc2)[C@H](C)C1 (relative stereo) | 161
CC1(C)Cc2sc3c(c2C1)CCC3=O | 60 to 62
COC(=O)c1cnc2c(c1)CCCCC2 | 129 to 131
CCCN(CCC)C(=O)n1ccc(S(=O)(=O)c2c(C)cc(C)cc2C)n1 | 64 to 65
CS(=O)(=O)N1CCN(S(=O)(=O)C=Cc2ccccc2)C(C(=O)NO)C1 (centres undefined) | 94 to 99
CCCNCCc1c[nH]c2ccc(NC(N)=O)cc12 | 146 to 147
CCOC(=O)c1ccccc1N(CC(=O)OC(C)(C)C)C(=O)CNC(=O)Nc1cccc(C)c1 | 142
O=Cc1c(Br)n(C2OC(CO)C(O)C2O)c2cc(Cl)c(Cl)cc12 (centres undefined) | 210 to 211
CCCC(CO)N1CC(COc2cccc(Cl)c2)OC1=O (centres undefined) | 79 to 81
Cc1c(NC(=O)CC(C)(C)C)cc2c(c1C)OC(C)(C)C2(O)c1ccc(Br)cc1 (centres undefined) | 118 to 119
CCCCCCCCCCCCSc1nnn(C(C(=O)O)c2ccccc2)n1 (centres undefined) | 64 to 67
c1ccc(-c2onc3ccc(Oc4ccc5noc(-c6ccccc6)c5c4)cc23)cc1 | 158 to 165
COc1ccc(-c2nc(Cl)nc(Cl)n2)cc1 | 131 to 134
O=C(N[C@@H](Cc1c[nH]c2ccccc12)C(=O)O)c1ccccc1 | 84 to 86
NNC(=S)c1ccc2ccccc2c1 | 166 to 167
C=C(C)Cc1c(O)cc(C)c(NC=O)c1C | 207 to 209
CC(C)(C)CC(C)(C)c1cc(Cc2cc(C(C)(C)C)cc(-n3nc4ccccc4n3)c2O)c(O)c(C(C)(C)CC(C)(C)C)c1 | 166
N=C(N)NNC(=O)c1cccc(-c2csc(N=C(N)N)n2)n1 | 194 to 196
CC(=O)NC[C@H]1CN(c2ccc(N3CCC(=C(C#N)C(=O)N4CCCC4)CC3)c(F)c2)C(=O)O1 | 125 to 128
CC(C)N(CCC(CC(=O)N1CCCCC1)(C(=O)N(C)C)c1ccccc1)C(C)C (centres undefined) | 142 to 145
COc1ccc2cc(C(N)=O)ccc2c1 | 224 to 226

The remaining lines, values ahead:

melting point [°C] | SMILES
223 to 225 | Cn1c(-c2ccc3ccccc3c2)n[nH]c1=S
142 to 148 | CC(=O)N1CCc2ccccc2C1Cc1ccccc1N (centres undefined)
257 to 259 | CC(=O)Nc1cn2cc(Sc3ccccc3)ccc2n1
165 | COc1ccc(N2CCOCC2)c2sc(C(=O)NCC(=O)c3cccs3)nc12
171 to 172 | CC(C)n1c(=O)n(C)c(=O)c2c(S(=O)(=O)CCCO)n(C3Cc4ccccc4C3)cc21
160 to 161 | O=c1c2ccccc2nc(-c2cc(-c3ccccc3)c(N3CCOCC3)s2)n1-c1ccccc1Cl
229 to 231 | CNC(=O)CC1CCN(Cc2cnc3c(C)c(NC(=O)c4ccc(-c5ccc(F)cc5)cc4)ccc3c2)CC1
194 to 195 | N#Cc1cc(-c2ccc(F)cc2)ccn1
140 to 142 | CCCc1nn(C)c2c(=O)n(CCCOc3ccc(SC(C)(C)C(=O)O)cc3)c(C)nc12
227 | CN1CCC(N(C)S(=O)(=O)c2ccc(Nc3nccc(Nc4cc(F)c(F)c(F)c4)n3)cc2)CC1
207 to 210 | Cc1cc(Cl)ccc1N1C(=O)c2ccc(Br)cc2C1=O
95 to 100 | Cc1c(-c2ccc(OCc3ccccc3)cc2)n(Cc2ccc(OCCN3C[C@@H]4CC[C@H]3C4)cc2)c2ccc(OCc3ccccc3)cc12
